Reference: US10071981B2, “Method of priming plants against abiotic stress factors” (Research Foundation of The City University of New York, priority 2014, dated 2018)
Entries after “also recorded” stand apart in the source; their conditions may differ.

Key:
Format in all cases: in vivo
[1] = tested on: Medicago truncatula plants; assay: Lipid peroxidation (leaf MDA/TBARS content) in drought-stressed plants; details: for leaf MDA content (lipid peroxidation): diluted in 70% (v/v) MetOH, FIG. 1
From the text: Cellular damage in leaves can be measured by determining lipid peroxidation (Malondialdehyde [MDA] content) and hydrogen peroxide (H2O2) levels. Lipid peroxidation is a widely used stress indicator of plant membranes. For example, the method described by Heath and Packer is the basic protocol used or adapted in numerous studies dealing with lipid peroxidation. See Heath R L, Packer L. 1968, Photoperoxidation in isolated chloroplasts. I. Kinetics and stoichiometry of fatty acid peroxidation. Archives in Biochemistry and Biophysics 125, 189-198. Measuring hydrogen peroxide levels is also well known in the art.
Mature (40 d) Medicago truncatula ecotype Jemalong A17 plants were used for the purposes of this study. These were grown in soil medium under controlled, optimal growth conditions and were then subjected to drought stress. Drought was imposed by withholding watering for 9 d (for detailed growth and stress conditions see Filippou et al., 2011). Both NOSH and NOSH-aspirin were applied at 100 μM concentration by foliar spraying at the start of stress imposition. The hybrid donors were diluted in 70% (v/v) and 30% (v/v) methanol, 20% (v/v) acetone or 20% (v/v) DMSO. Cellular damage was evaluated by lipid peroxidation levels (TBARS content) and hydrogen peroxide (H2O2) content as previously described (Filippou et al., 2011; Tanou et al., 2012), while osmoprotective capacity was evaluated by proline content (ninhydrin assay) as previously described (Antoniou et al., 2013). Real-time RT-PCR gene expression analysis was carried out using a Biorad IQ5 thermocycler as previously described (Filippou et al., 2013b). Relative quantification of gene expression and statistical analysis of all qRT-PCR data (pairwise fixed reallocation randomization test) were performed using the REST software according to Pfaffl et al. (2002). The actin 11 gene was used as a housekeeping reference gene. All analyses were carried out using three independent biological pools of samples as replicates (with a minimum of three independent plants per pooled sample).
(§1) An examination of cellular damage levels was performed by means of spectrophotometric determination of lipid peroxidation.

Medicago sativa plants [2] = assay: Macroscopic (phenotypic) observation of drought-stressed plants; details: for phenotype (vitality, turgor, greening): 100 μM foliar spraying, 30% MetOH, 6 d after stress imposition, vs drought-stressed plants, FIG. 9; for recovery capacity (phenotype): day 7 (6 d drought + 1 d rewatering), vs drought-stressed alone, FIG. 10; for phenotype after second wave of drought stress: day 13, another 6 days without watering, FIG. 11
Experimental: where cPTIO represents a NO inhibitor, while HXL is a H2S inhibitor. In addition to the previous setup of sampling control and drought-stressed samples, plants were re-watered at 6 d after drought stress imposition and additional sampling was carried out 1 d after rewatering to examine recovery of plants, while a second wave of drought stress was imposed to see if primed plants develop a longer-term, ‘memory’ effect. Plant Material and Stress Conditions
(§2) Mature (42 d) Medicago sativa plants were used for the purposes of this study. These were grown in soil medium under controlled, optimal growth conditions and were then subjected to drought stress. Drought was imposed by withholding watering until drought symptoms (loss of turgour, wilting, chlorosis) were observed (6 d after stress imposition). Samples were then re-watered to observe recovery potential after 1 day (7 d). Both NOSH and NOSH-aspirin were applied at 100 μM concentration by foliar spraying at the start of stress imposition. The hybrid donors were diluted in 30% (v/v) methanol. Physiological parameters (stomatal conductance and chlorophyll fluorescence) were measured with a DT-Porometer AP4 (Delta-TDevices, Cambridge, UK) and an OptiSci OS-30p chlorophyll fluorometer (Opti-Sciences, Hudson, N.H., USA) respectively (Filippou et al., 2013). Chlorophyll fluorescence (Fv/Fm) of leaves represents the maximum photochemical efficiency of photosystem II (PSII). Cellular damage was evaluated by lipid peroxidation levels (TBARS content), nitric oxide (NO) content (nitrosative stress) and hydrogen peroxide (H2O2) content (oxidative stress) as previously described (Filippou et al., 2011; Tanou et al., 2012), while osmoprotective capacity was evaluated by proline content (ninhydrin assay) as previously described (Antoniou et al., 2013). Antioxidant enzyme activities (SOD and CAT) were measured as previously described (Filippou et al., 2014). Real-time RT-PCR gene expression analysis was carried out using a Biorad IQ5 thermocycler as previously described (Filippou et al., 2013). Relative quantification of gene expression and statistical analysis of all qRT-PCR data (pairwise fixed reallocation randomization test) were performed using the REST software according to Pfaffl et al. (2002). The actin 11 gene was used as a housekeeping reference gene. All analyses were carried out using three independent biological pools of samples as replicates (with a minimum of fifteen independent plants per pooled sample). The experimental setup is shown schematically in FIG. 8.

Medicago sativa plants [3] = assay: Physiological measurements (stomatal conductance, chlorophyll fluorescence) in drought-stressed plants; details: 100 μM; vs drought-stressed samples; FIG. 12
Experimental: as §2

Medicago sativa plants [4] = assay: Lipid peroxidation (leaf MDA/TBARS content) in drought-stressed plants; details: FIG. 13
Experimental: as §2, §1

Medicago sativa plants [5] = assay: Hydrogen peroxide content in leaves of drought-stressed plants; details: FIG. 14A
Experimental: as §2
Abiotic stress conditions are associated with increased levels of reactive oxygen (ROS) and reactive nitrogen (RNS) species content, which are toxic for the cells. During such conditions, the production of ROS and RNS exceeds the capacity of the antioxidative defense systems to remove them, causing nitro-oxidative stress.

Medicago sativa plants [6] = assay: Nitric oxide content in leaves of drought-stressed plants; details: 100 μM; vs drought-stressed samples; FIG. 14B
Experimental: as §2, with “Antioxidant enzyme activities (SOD and CAT) were measured as previously described (Filippou et al., 2014). Real-time RT-PCR gene expression analysis was carried out using a Biorad IQ5 thermocycler as previously described (Filippou et al., 2013). Relative quantification of gene expression and statistical analysis of all qRT-PCR data (pairwise fixed reallocation randomization test) were performed using the REST software according to Pfaffl et al. (2002). The actin 11 gene was used as a housekeeping reference gene. All analyses were carried out using three independent biological pools of samples as replicates (with a minimum of fifteen independent plants per pooled sample). The experimental setup is shown schematically in FIG. 8.” left out

Medicago sativa plants [7] = assay: Antioxidant enzyme activities (SOD and CAT) in leaves of drought-stressed plants; details: 7 d, after rewatering, vs stressed-alone plants; for SOD enzymatic activity: FIG. 16A; for CAT enzymatic activity: FIG. 16B
Experimental: as §2
The enzymatic activity of two key antioxidants (SOD and CAT) were evaluated. SOD dismutates superoxide radicals to hydrogen peroxide, while CAT directly scavenges hydrogen peroxide. Both enzymes appear to be regulated in response to stress and priming agent pretreatment in a differential manner (FIG. 16). […] In any case, it should be noted that the cellular enzymatic antioxidant battery linked with ROS scavenging is very complex involving several other components (e.g. APX), isoforms in several compartments (e.g. peroxisomes, chloroplasts, mitochondria), as well as non-enzymatic antioxidants (e.g. ascorbic acid, tocopherols and glutathione).

Medicago sativa plants [8] = assay: Real-time RT-PCR gene expression in leaves of drought-stressed plants; details: FIG. 17; for relative gene expression of genes examined (NR, GST17, Cu/ZnSOD, FeSOD, APX, PIP): after rewatering, vs drought-stressed alone plants; for SOD isoforms (Cu/ZnSOD, FeSOD) relative gene expression: pretreated and stressed vs stressed alone plants
Experimental: as §2
Finally, qRT-PCR gene expression analysis was carried out (FIG. 17) for key defense-related genes, including major enzymatic antioxidants (GST17, Cu/ZnSOD, FeSOD, cAPX) linked with ROS scavenging, as well as genes involved in NO biosynthesis (NR). In addition, an aquaporin (PIP) was also examined which is linked with response to water deficit and transport.

[9] = 100 μM foliar spraying, drought 9 d
[10] = 100 μM, 6 d drought, vs drought-stressed samples
[11] = rewatering at 7 d vs respective pretreated, drought-stressed samples at 6 d

| SMILES | lipid peroxidation levels (leaf MDA content) ([1]; 100 μM foliar spraying, 30% (v/v) MetOH, drought 9 d, vs drought-stressed control, FIG. 2) | leaf MDA content (lipid peroxidation) [1, 9] | lipid peroxidation levels ([1]; 100 μM, solvent 20% DMSO or 20% acetone (solvent itself toxic)) | phenotype (vitality, turgor, greening) (Medicago sativa plants [2]) | recovery capacity (phenotype) (Medicago sativa plants [2]) | phenotype after second wave of drought stress (Medicago sativa plants [2]) | chlorophyll fluorescence (Fv/Fm) (Medicago sativa plants [3]) | stomatal conductance (Medicago sativa plants [3]) | MDA content (lipid peroxidation) (Medicago sativa plants [4]; [10]) | MDA content (lipid peroxidation) (Medicago sativa plants [4]; 7 d (after rewatering)) | H2O2 content (Medicago sativa plants [5]; [10]) | H2O2 content (Medicago sativa plants [5]; [11]) | nitric oxide (NO) content (Medicago sativa plants [6]) | SOD enzymatic activity (Medicago sativa plants [7]) | CAT enzymatic activity (Medicago sativa plants [7]) | relative gene expression of genes examined (NR, GST17, Cu/ZnSOD, FeSOD, APX, PIP) (Medicago sativa plants [8]) | SOD isoforms (Cu/ZnSOD, FeSOD) relative gene expression (Medicago sativa plants [8]) |
| --- | --- | --- | --- | --- | --- | --- | --- | --- | --- | --- | --- | --- | --- | --- | --- | --- | --- |
| O=C(CCCO[N+](=O)[O-])Oc1ccccc1C(=O)Oc1ccc(-c2cc(=S)ss2)cc1 [NOSH-A] | significantly lower lipid peroxidation levels | statistically significant protection | lower lipid peroxidation levels | significantly improved vitality, turgor and greening | notably improved recovery capacity | maintained growth and vitality | significantly higher | significantly higher | statistically significant protection | maintained low MDA content levels close to those of control, watered samples | significantly reversed | ameliorated even further | significantly reversed | significantly induced | increased CAT enzymatic activity; also recorded: significantly induced | general suppression of most genes examined | significant transcriptional regulation (induction) |
| O=C(CCCO[N+](=O)[O-])Oc1ccc(-c2cc(=S)ss2)cc1 [NOSH] | – | lowered | – | significantly improved vitality, turgor and greening | notably improved recovery capacity | maintained growth and vitality | significantly higher | significantly higher | statistically significant protection | maintained low MDA content levels close to those of control, watered samples | significantly reversed | ameliorated even further | significantly reversed | significantly induced | increased CAT enzymatic activity; also recorded: significantly induced | general suppression of most genes examined | significant transcriptional regulation (induction) |
